Experimental data as given in article PMC3637257, “A Novel Anti-Tumor Inhibitor Identified by Virtual Screen with PLK1 Structure and Zebrafish Assay” (PLoS ONE, 2013).

Tested on: PC-3
Experiment: cells
Design: MTS cell viability / proliferation assay of PC-3 prostate cancer cells
Settings: Homo sapiens, PC-3, 72 h; read-out: IC50 inhibiting PC-3
Method: Fifteen human cancer cell lines were tested in our studies. Initial screens used human lung cancer cell A549, human epithelial cervical cancer Hela cells, human prostate cancer PC-3 cells, human epidermoid cancer KB-31 cells, human breast cancer MDA-MB-231 cells, and human pancreatic cancer HPAF. These cell lines were obtained commercially from ATCC. The first six cell cultures were maintained in 75 cm^2 cell culture flasks in which the cells were passaged at 70–80% confluence every 2–3 days. All cancer cells were cultured in RPMI 1640 containing 10% fetal calf serum, 100 U/mL penicillin, 100 µg/mL streptomycin, and 2 mM L-lutamine (complete RPMI medium). All cancer cells were plated at 1×10^4 cells per well in a 96 well plate. Drugs of different concentrations were then added. MTS assays (CellTiter 96® AQueous One Solution Cell Proliferation Assay, Promega) were performed after 72 h post treatment to determine the cell viability following drug administration.

IC50 | SMILES
40 µM | COc1ccc2nc(SCC(=O)Nc3ccccc3OC)c(C#N)cc2c1 [5a]
10 µM | COc1ccc2nc(SCC(=O)Nc3cc(Cl)ccc3OC)c(C#N)cc2c1 [5b]
10 µM | COc1ccc(OC)c(NC(=O)CSc2nc3ccc(OC)cc3cc2C#N)c1 [5c]
10 µM | COc1ccc2nc(SCC(=O)Nc3ccccc3Br)c(C#N)cc2c1 [5d]
10 µM | COc1ccc2nc(SCC(=O)Nc3ccccc3Cl)c(C#N)cc2c1 [5e]
10 µM | COc1ccc2nc(SCC(=O)Nc3ccccn3)c(C#N)cc2c1 [5f]
10 µM | COc1ccc2nc(SCC(=O)Nc3ccc(Cl)cn3)c(C#N)cc2c1 [5g]
10 µM | COc1ccc2nc(SCC(=O)Nc3cnccn3)c(C#N)cc2c1 [5h]
20 µM | COc1ccc2nc(SCC(=O)Nc3cc(C(F)(F)F)ccc3C(F)(F)F)c(C#N)cc2c1 [5i]
10 µM | COc1ccc2nc(SCC(=O)Nc3nccs3)c(C#N)cc2c1 [5j]
30 µM | COc1ccc2nc(SCC(=O)Nc3ccccc3O)c(C#N)cc2c1 [5k]
10 µM | COc1ccc2nc(SCC(=O)Nc3ccc(Cl)cc3Cl)c(C#N)cc2c1 [5l]
20 µM | CCc1cccc(CC)c1NC(=O)CSc1nc2ccc(OC)cc2cc1C#N [5m]
10 µM | COc1ccc2nc(SCC(=O)Nc3ccc(N(C)C)cc3)c(C#N)cc2c1 [5n]
20 µM | COc1ccc(C)cc1NC(=O)CSc1nc2ccc(Cl)cc2cc1C#N [5o]
10 µM | N#Cc1cc2cc(Cl)ccc2nc1SCC(=O)Nc1ccccc1C(F)(F)F [5p]
20 µM | COc1ccc(C)cc1NC(=O)CSc1nc2ccc(C)cc2cc1C#N [5q]
40 µM | Cc1ccc2nc(SCC(=O)Nc3ccccc3C(F)(F)F)c(C#N)cc2c1 [5r]
40 µM | COc1ccc(C)cc1NC(=O)CSc1nc2ccc(Br)cc2cc1C#N [5s]
50 µM | N#Cc1cc2cc(Br)ccc2nc1SCC(=O)Nc1ccccc1C(F)(F)F [5t]
1 µM | COc1ccc2nc(SCC(=O)Nc3cc(C)ccc3OC)c(C#N)cc2c1 [I2]
